Test results: patent publication US20050239867A1, “Methods of using and compositions comprising PDE4 modulators for the treatment and management of pulmonary hypertension” (priority 2004, published 2005)

What was measured:
patients with PH [1] = assay: Clinical Study 2 in patients with PH, 12 weeks, placebo controlled; assay type: in vivo, human
TNF-α production = assay: In vitro inhibition of cytokine (TNF-α) production following LPS-stimulation of human PBMC and human whole blood; assay type: cell-based; conditions: in vitro studies; more potent than thalidomide
Description: In a specific embodiment, the pharmacological properties of 3-(3,4-dimethoxy-phenyl)-3-(1-oxo-1,3-dihydro-isoindol-2-yl)-propionamide are characterized in in vitro studies. Studies examine the effects of the compound on the production of various cytokines. Inhibition of TNF-α production following LPS-stimulation of human PBMC and human whole blood by the compound is investigated in vitro. […] The pharmacological effects of 3-(3,4-dimethoxy-phenyl)-3-(1-oxo-1,3-dihydro-isoindol-2-yl)-propionamide may derive from its action as an inhibitor of the generation of inflammatory cytokines.

patients with PH [2] = assay: Expanded clinical study in 213 PH patients, WHO functional class III or IV, 16 weeks; assay type: in vivo, human
Description: On the basis of the results of the above study 2, the clinical study is expanded with additional 213 PH patients for at least 16 weeks. The study is conducted with patients with PH, WHO functional class III or IV. Two hundred thirteen patients are randomized to receive either 400 mg bid or 800 mg bid of 3-(3,4-dimethoxy-phenyl)-3-(1-oxo-1,3-dihydro-isoindol-2-yl)-propionamide or placebo in a 1:1:1 ratio. The primary endpoint, a 6-minute walk distance, is evaluated at 16 weeks. The treated patients walk 36.4 meters further at 16 weeks compared to a 7.8 meter reduction in walk distance in the placebo group, for a treatment effect of 44.2 meters. Clinical worsening, defined by death, premature withdrawal from study, hospitalization for worsening of PH or institution of epoprostenol, occur in 37% of placebo-treated patients, compared with 11% of the patients treated with the compound of the invention.

[3] = 12 weeks, compared with placebo patients
[4] = after 12 weeks of treatment, compared with placebo

Compound: COc1ccc(C(CC(N)=O)N2Cc3ccccc3C2=O)cc1OC (centres unmarked) [3-(3,4-Dimethoxy-phenyl)-3-(1-oxo-1,3-dihydro-isoindol-2-yl)-propionamide]
- dyspnea score (patients with PH [1]; [3]): improvements
- functional class (patients with PH [1]; [3]): improvements
- cardiac output (patients with PH [1]; [4]): increase
- pulmonary arterial pressure (patients with PH [1]; [4]): decreases
- pulmonary vascular resistance (patients with PH [1]; [4]): decreases
- 6-minute walk distance, average walked farther (patients with PH [1]; after 12 weeks, 400 mg for four weeks followed by 800 mg for eight weeks, NYHA functional class III): 70 meters
- pharmacological activity profile, potency relative to thalidomide (TNF-α production): five to fifty
- 6-minute walk distance, walked further (patients with PH [2]; at 16 weeks, 400 mg bid or 800 mg bid): 36.4 meters
- 6-minute walk distance, treatment effect versus placebo (patients with PH [2]; at 16 weeks, 400 mg bid or 800 mg bid, placebo 7.8 meter reduction): 44.2 meters
- clinical worsening (death, premature withdrawal, hospitalization for worsening of PH or institution of epoprostenol), share of patients (patients with PH [2]; at least 16 weeks, placebo 37%): 11%
- functional class (patients with PH [2]; treated versus placebo patients): improved significantly more
